Source: US7910692B2, “Immunogenic peptides and methods of use” (The United States of America as represented by the …, priority 2006, dated 2011)
One block for each substance: values may come before it.

How the values were obtained:
HLA-A2 molecules = target: T1, HLA-A2 molecules (Homo sapiens, UniProt P04439, D140Y/D185E/D98H/E176V/E277Q/G131W/G231S/I119V/I121R/I166T/I218V/L300P/L318F/N151K/N90K/P208A/P217A/Q86G/Q94H/R138H/R169H/T345S); assay: Peptide binding to HLA-A2: upregulation of HLA-A2 expression on T2 cells, flow cytometry; conditions: for T2 binding, mean fluorescence intensity: T2 cells; for binding to HLA-A2 compared with native peptides: all concentrations, 0 to 25 μg/ml (FIG. 1A)
T1 construct: expressed in transfected cells; host or cells: T2 cells (provided by Dr. Peter Cresswell)
Protocol: The primary amino acid sequence of human PAGE4 was analyzed for consensus motifs for novel HLA-A2 binding peptides. Two 10-mer peptides (P16-25 designated as P16 and P59-68 designated as P59) and one 9-mer peptide (P84-92 designated as P84) were identified and evaluated (Table 1). […] For this reason, five different analogues of native peptides were synthesized and were investigated for their binding ability to HLA-A2-positive T2 cells along with the native P16, P59 and P84 peptides. A MUC-1 peptide and a CEA HLA-A3 binding peptide (CAP-7) were used as a positive and negative control, respectively (Tsang et al., J Natl Cancer Inst 1995; 87:982-90).

peptide-HLA-A2 complexes = target: T2, peptide-HLA-A2 complexes (Homo sapiens, UniProt P04439, D140Y/D185E/D98H/E176V/E277Q/G131W/G231S/I119V/I121R/I166T/I218V/L300P/L318F/N151K/N90K/P208A/P217A/Q86G/Q94H/R138H/R169H/T345S); assay: Stability of peptide-HLA-A2 complexes on T2 cells after brefeldin A block; assay type: binding; conditions: 8-hour observation period; 12.5 μg/ml (FIG. 1B)
T2 construct: expressed in transfected cells; host or cells: T2 cells (provided by Dr. Peter Cresswell)
Protocol: FIGS. 1A and 1B are line graphs showing the binding of native PAGE4 peptides and their agonist peptides to HLA-A2 molecules. Peptides were analyzed for binding to T2 cell line as described in Example 1. For the results presented in FIG. 1A, peptides were used at concentrations of 0 to 25 μg/ml. P16 peptide (∘), P16-1 (●), P16-2 (▴), P84 (□) and P84-1 (▪), positive control (MUC-1 peptide) (+) and negative control (HLA-A3 binding peptide) (X). Results are expressed in mean fluorescence intensity (MFI). FIG. 1B presents a comparison of the stability of HLA-A2 peptide complexes of PAGE4 native and agonist peptides. T2 cells were incubated overnight with P16 peptide (∘), P16-1 (●), P16-2 (▴), P84 (□) and P84-1 (▪) peptides at a concentration of 12.5 μg/ml and then were washed free of unbound peptide and incubated with brefeldin A to block delivery of new class 1 molecules to the cell surface. At the indicated times, cells were stained for the presence of surface peptide-HLA-A2 complexes. Results are expressed in relative percentage of binding compared with 100% at time 0.
The analogues of P16 were designated P16-1 and P16-2, and the analogue of P84 was designated as P84-1. These peptides bound to HLA-A2 at higher levels than their native peptides. Studies were then conducted to examine the ability of these peptides to bind HLA-A2 at various concentrations. […] Studies were then undertaken to examine the stability of the peptide-MHC complex for the peptides P16, P84, P16-1, P16-2 and P84-1. Each peptide was incubated with T2 cells overnight, the unbound peptides were washed off, and the cells were then incubated with Brefeldin A to block delivery of new class I molecules to the cell surface. Cells were analyzed for the presence of peptide-HLA-A2 complexes at various time points.

T-A-P16 cells = assay: Cytokine production by T-A-P16 cells stimulated with native and agonist P16 peptides (FIG. 2); assay type: cell-based, human; conditions: vs native P16 or P16-2 peptide; 12.5 ul/ml; effector-to-APC 1:3; 24-hour supernatants (FIG. 2)
Protocol: FIG. 2 is a set for bar graphs illustrating the ability of autologous B cells pulsed with native and agonist P16 peptides to induce IFN-γ, Lymphotactin, Granzyme B, TNF-α and IL-2 production by T cell line derived from the native peptide (T-A-P16). T-A-P16 cells were used as effectors at in vitro stimulation (IVS-4). T cells were stimulated with irradiated autologous B cells pulsed with different PAGE4 analogues at a concentration of 12.5 ul/ml, and an effector-to-APC ratio of 1:3. Twenty-four-hour culture supernatants were collected and screened for the secretion of IFN-γ, Lymphotactin, Granzyme B, TNF-α and IL-2 using ELISA assay.
Detection of Cytokines: Supernatants of T cells stimulated for […] with peptide-pulsed autologous EBV-transformed B cells, in IL-2-free medium at various peptide concentrations, were screened for secretion of IFN-γ using an ELISA kit (BioSource International, Camarillo, Calif.) and lymphotactin using an ELISA assay (36). Granzyme B, TNF-α and IL-2 were determined by using a Cytokines and Chemokines-Multiplex Kit (Meso Scale Discovery, Geitherburg, Md.). The results were expressed in pg/ml.
Studies were then undertaken to examine the ability of the P16, P16-1, P16-2 peptides to activate the T-A-P16 cells, which were generated with the P16 native peptide. […] The P16-1 agonist was thus chosen for further study.

T2 cells = assay: 111In release assay: lysis of peptide-pulsed T2 targets by PAGE4-specific T-cell lines; assay type: cell-based; conditions: for % lysis (±SD) by T-A-P16 / % lysis (±SD) by T-B-P16-1: 16-hour 111In release, peptide 12.5 μg/ml, IVS4
Protocol: Cytotoxic Assay: Cytotoxicity assays were used as described previously (Tsange et al., J Natl Cancer Inst 1995; 87:982-90). A 6-hour or 16-hour ^111In release assay was used to determine T-cell mediated killing. Target cells were labeled with ^111In oxine (Amersham Health, Silver Spring, Md.) for 20 min at room temperature, and used at 3×10^3 cells per well, in 96-well rounded-bottom culture plates. ^111In released was measured by gamma counting. Spontaneous release was determined by incubating the target cells with medium alone, and complete lysis by incubating the target cells with 2.5% Triton X-100. Specific lysis (%)=[(observed release−spontaneous release)/(complete release−spontaneous release)]×100.
To examine the ability of the P16 and P16-1 peptides to activate the PAGE4-specific T-cells, T-A-P16 cells were subsequently analyzed for the ability to lyse peptide-pulsed targets.

T-B-P16-1 cells = assay: CD107a mobilization assay; assay type: cell-based, human; conditions: T-B-P16-1 cells with T2 cells pulsed with 12.5 μg/ml peptide; 5 hours (FIG. 3)
Protocol: The expression of CD107a on the cell surface of CD8+ T cells and correlation with cytotoxic activity by PAGE4-specific T-cell line (T-B-P16-1) against P16-1 or P16 pulsed T2 cells. 0.5×10^6 effector cells/ml were incubated (FIG. 3a) alone, (FIG. 3b) with T2 cells without peptide, (FIG. 3c) with T2 cells pulsed with 12.5 μg/ml of P16 peptide, or (FIG. 3d) with T2 cells pulsed with 12.5 μg/ml of P16-1 peptide. Results are expressed in % of CD107a positive and CD8 positive cells. Numbers of the upper right are % of specific lysis±SD.
CD107a mobilization assay: The CD107a mobilization assay was performed as previously described (Rubio et al., Nat Med 2003; 9:1377-82). […] Samples were then fixed and the expression of CD107a on the cell surface of CD8^+ T cells was analyzed by flow cytometry.
In order to determine CTL degranulation which is a requisite process of perforin-granzyme mediated killing by activated CD8+ T cells, CD107a mobilization to the cell surface of CD8+ T cells was examined following activation with P16 or P16-1 peptides in addition to CTL assays. T-B-P16-1 cells were incubated with P16 native or P16-1 agonist peptide-pulsed T2 cells for 5 hours in the presence of monensin and analyzed for CD107a mobilization by flow cytometric analysis (FIG. 3). […]

LNCaP cells = assay: Cold target inhibition assay; assay type: cell-based, human; conditions: peptide-pulsed (12.5 μg/ml) unlabeled T2 cells; LNCaP:T2 1:10; E:T 15:1 (FIG. 5A)
Protocol: For the results presented in FIG. 5A, ^111In labeled LNCaP cells and unlabeled T2 cells were used at a ratio of 1:10. T2 cells were incubated with or without P16-1 peptide (12.5 μg/ml) in serum-free medium for 2 hours at 37° C. prior to the addition of the T-A-P16-1 cells. For the results presented in FIG. 5B, anti-HLA-A2 antibody (10 μg/ml and 50 μg/ml) or 110 μg/ml of control IgG antibody were added to ^111In labeled LNCaP cells for 1 hour at 37° C. prior to the addition of the T-A-P16-1 cells. Results are expressed in percent specific lysis at effector-to-target ratio of 15:1. Bars=SD. Statistically significant (P<0.05, two tailed t test).
To confirm the specificity and HLA-A2 restriction of CTL cytolysis, LNCaP cells were used as target in a cold target inhibition assay. […] Moreover, to determine whether the lysis was HLA-A2 restricted, antibody blocking experiments were carried out.

T2 binding, mean fluorescence intensity (HLA-A2 molecules; peptide 25 μg/ml): 260 MFI
Substance: HLFGYSWYK [CAP-7 peptide, reference compound]

binding to HLA-A2 compared with native peptides (HLA-A2 molecules): higher levels
stability of peptide-HLA-A2 complexes compared with native peptide complexes (peptide-HLA-A2 complexes): more stable
Substance: P84-1: analogue of P84; amino acids 84-92 of SEQ ID NO: 1, X6 tyrosine, X7 leucine, X8 valine (YLPPNPKHV; (16)..(16) Xaa can be Gln or Tyr; listed as Homo sapiens) [Peptide P84-1]

binding to HLA-A2 compared with native peptides (HLA-A2 molecules): higher levels
stability of peptide-HLA-A2 complexes compared with native peptide complexes (peptide-HLA-A2 complexes): greater
Substance: P16-1: agonist analogue of P16; amino acids 16 to 25 of SEQ ID NO: 1, X1 glutamine, X2 leucine (QLAPDVVAFV; (16)..(16) Xaa can be Gln or Tyr; listed as Homo sapiens) [Peptide P16-1]
IFN-γ, lymphotactin, Granzyme B, TNF-α and IL-2 production by T-A-P16 cells (T-A-P16 cells): higher levels
% lysis (±SD) by T-A-P16 (T2 cells; effector T-A-P16, E:T 15:1): 16.7 (0.9) %
% lysis (±SD) by T-A-P16 (T2 cells; effector T-A-P16, E:T 30:1): 20.4 (1.9) %
lysis of peptide-pulsed T2 cells by T-A-P16 compared with P16-pulsed T2 cells (T2 cells; effector T-A-P16, two E:T ratios): higher
% lysis (±SD) by T-B-P16-1 (T2 cells; effector T-B-P16-1, E:T 15:1): 25.8 (0.6) %
% lysis (±SD) by T-B-P16-1 (T2 cells; effector T-B-P16-1, E:T 30:1): 34.7 (0.04) %
lysis of peptide-pulsed T2 cells by T-B-P16-1 compared with P16-pulsed T2 cells (T2 cells; effector T-B-P16-1, two E:T ratios): to a greater extent
CD8+ T cells expressing surface CD107a compared with P16 native peptide (T-B-P16-1 cells): Higher number
decrease in CTL activity of T-A-P16-1 cells against labeled LNCaP cells (LNCaP cells): 79.6%

binding of native peptides to HLA-A2 molecules in the T2 assay (HLA-A2 molecules; T2 assay): bound to HLA-A2 molecules
T2 binding, mean fluorescence intensity (HLA-A2 molecules; peptide 25 μg/ml): 270 MFI
T2 binding, fold increase as compared with the negative control (HLA-A2 molecules; peptide 25 μg/ml, vs CAP-7 negative control): 1.04 fold
Substance: KTPPNPKHA (XXPPNPKHX; (16)..(16) Xaa can be Gln or Tyr; listed as Homo sapiens) [Peptide P84]

binding to HLA-A2 compared with native peptides (HLA-A2 molecules): higher levels
stability of peptide-HLA-A2 complexes compared with native peptide complexes (peptide-HLA-A2 complexes): more stable
Substance: P16-2: analogue of P16; amino acids 16 to 25 of SEQ ID NO: 1, X1 tyrosine, X2 leucine (YLAPDVVAFV; (16)..(16) Xaa can be Gln or Tyr; listed as Homo sapiens) [Peptide P16-2]
